Patent publication US11666562B2, “Ilaprazole for inhibiting the release of enveloped viruses from cells” (Northwestern University, priority 2020, dated 2023)
pEC50: −log10 of the molar value.

How the values were obtained:
[1] = tested on: HSV-2; experiment: Release of HSV-2 from infected Vero cells, plaque assay; format: cell-based, Herpes simplex virus-2(A/B-G); settings: for Anti-HSV-2 activity (release from Vero cells), in words: Table 2, 24 h
Protocol: (§1) We infected Vero cells with HSV-1 and HSV-2 for two hours at a multiplicity of infection (MOI in pfu\cell) of 0.1 to assay the antiviral activity of tenatoprazole. Following infection, cells were treated with different concentrations of tenatoprazole. After 24 or 48 h the media fractions were collected and released virus titers were determined by standard plaque assays (30). Tenatoprazole caused a 3-log drop of HSV-1 and 4-5 log drop of HSV-2 in released infectious virus from Vero cells at 24 hours after infection in a dose dependent manner (Table 1, shown in FIG. 5, columns 2 and 3) with calculated EC50's ranging from 48-80 μM. Total virus titer was also determined to differentiate between virus released into the media and infectious particles present in cell lysate. […] The concentrations of tenatoprazole that blocked virus release were nontoxic to Vero cells as determined by a 96® AQueous One Solution cell proliferation assay reagent (Table 1, shown in FIG. 5, column 7). Taken together, tenatoprazole inhibited levels of both released and infectious virus particles without affecting cell viability at effective concentrations.
To examine the effects of the compounds on the release of HSV-2 from Vero cells, we infected the cells with virus two hours prior to treatment with media containing different concentrations of compound. We incubated the cells for 24 or 48 hours and then collected the cell media fractions.
(§2) Herpesvirus infection of Vero cells. Vero cells (0.8×10^6 cells/well of a 6-well plate) were infected with HSV-1 or HSV-2 at a MOI of 0.1 pfu/cell in DMEM with 1% serum for two hours in the C02 incubator at 37° C. In one experiment looking at the effect of tenatoprazole on HSV-2 release from cells 24 and 48 h a MOI of 3 pfu/cell was used. The cell supernatants were aspirated and replaced with 1 ml (24 h) or 2 ml (48 h and 72 h) of DMEM with 1% serum with DMSO or different concentrations of drug (tenatoprazole, ilaprazole, or analogs) dissolved in DMSO. After 24 or 48 h incubation, the cell supernatant was collected and frozen at −80° C. Virus titer in the cell media fraction was determined by standard plaque assays using 10-fold serial dilutions of cell supernatants of Vero cells and incubated for 48 h after which cells were fixed and stained to count the plaques (22). For determination of total virus (extracellular+cytoplasmic), virus infected cells were incubated for 24 h with and without drug presence, then the plate of cells were subjected to 3 cycles of freeze/thawing (−80° C./37° C.) 30 min each prior to collecting the supernatant after centrifugation for measurement of total virus titer. Virus titer was measured by standard plaque assay as above.
(§3) Drug potency and cell toxicity. EC50 calculations were determined by using AAT Bioquest's EC50 calculator. Cell toxicity at different concentrations of drugs as indicated was determine using the Cell Proliferation Reagent WST-1 (Roche Diagnostics) or cellular 96® Aqueous One Reagent viability reagent according to manufacturer's instructions. For 293T cells, the concentration of DMSO was 0.2% or less and assays were carried out with DMEM with 10% serum. Cell toxicity experiments were repeated twice.

[2] = tested on: HIV-1; settings: earlier reports (refs 5, 29); cited from earlier work
[3] = tested on: HSV-1; experiment: Release of HSV-1 from infected Vero cells, plaque assay; format: cell-based, Herpes simplex virus-1 (Kos strain); settings: different concentrations, repeated 4 times
Protocol: as §1, §2, §3

[4] = molecular target: T1, Tsg101-UEV (Tsg101 amino acids 1-145) (Homo sapiens, UniProt Q99816); experiment: Fluorescence thermal shift (FTS) assay, binding to Tsg101-UEV; settings: FTS, Sypro-Orange, no DTT
T1 construct: The recombinant Tsg101 fragment (amino acids 1-145), prepared as described above in Materials and Methods; His6 (N); thrombin protease cleavage site (N); made in house; host or cells: E. coli ROSETTA 2 (DE3) pLysS
T1 sequence (Q99816 1-145): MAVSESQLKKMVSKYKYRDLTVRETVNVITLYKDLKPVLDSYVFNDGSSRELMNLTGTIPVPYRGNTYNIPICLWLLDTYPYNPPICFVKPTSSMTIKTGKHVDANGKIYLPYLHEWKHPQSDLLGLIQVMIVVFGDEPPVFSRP
Protocol: The fluorescence-based thermal shift assay is based on the observation that a protein unfolds upon heating, exposing the hydrophobic residues within its tertiary structure. The unfolding temperature (Tm) is determined by the protein's primary sequence and solution environment. The FTS assay uses a fluorescent dye sensitive to a hydrophobic environment to probe protein stability and its modulation by small molecule ligands. The dye has a low fluorescence quantum yield when in a polar environment. Once in contact with the hydrophobic core normally buried within a folded protein that has become exposed during the thermal unfolding (melting) process, the quantum yield of the dye increases, thus providing a reporting signal. Furthermore, a protein's stability can be affected by ligand binding, resulting in an increase or decrease in its melting temperature. FTS assay uses the Tm shift upon binding of a ligand to identify hit compounds for drug discovery.
Identification of prazole compounds that bind the UEV ubiquitin-binding domain of Tsg101. We screened chemical compounds using a fluorescence thermal shift (FTS) assay (27, 28) to identify small molecules that bind directly to a truncated form of Tsg101 (amino acids 1-145) which contains the Ubiquitin E2 variant (UEV) ubiquitin-binding domain (FIG. 1). The UEV, which contains the PT/SAP binding domain in addition to the ubiquitin-binding domain, provides chaperone functions to HIV-1 Gag that is independent of its interaction with the PS/TAP motif, and contains the prazole binding site (5). This truncated Tsg101, called Tsg101-UEV, was used because full-length Tsg101 has significant solubility issues in aqueous solution. Tsg101 is an adaptor protein and thus lacks a readily deployable functional assay, making FTS a tractable approach to identify interacting compounds. FTS monitors protein thermal denaturation using SYPRO-Orange, a dye which fluoresces when bound to hydrophobic surfaces, which allows monitoring of the changes in hydrophobic surface exposure during protein denaturation (27). Since ligand binding affects protein thermal stability, it can be detected through modulation of protein thermal denaturation (melting) as a shift in melting temperature (Tm). Tsg101-UEV has a well-defined melting curve suitable for FTS. We used the FTS assay to identify compounds that bind to Tsg101-UEV.
Purification of Tsg101 (1-145). N-terminally His6-tagged Tsg101 UEV domain (amino acids 1-145), called Tsg101-UEV, was encoded in a pET-28b vector (Novagen—EMD Millipore), which also included a thrombin protease cleavage site (His6-Thrombin Site-Tsg101, 1-145). Tsg101-UEV was grown in LB broth with Kanamycin (30 μg/ml) in ROSETTA 2 (DE3) pLysS E. coli competent cells (EMD Millipore) and induced with 1 mM IPTG at room temperature for 3 h. Bacteria were collected by centrifugation at 4,000 rpm for 10 min at […]. Bacteria were suspended in 50 ml binding buffer (20 mM Tris-HCl, pH 7.9, 0.5 M NaCl, 5 mM Imidazole) with 1 mM PMSF, 0.1% NP40, and a Protease Inhibitor Cocktail Tablet (Roche) and sonicated for 3.5 min on ice. The sonicate was spun at 9,000 rpm for 1 h at […] in a Sorvall centrifuge. The supernatant was collected and passed through a 1.5 ml Ni-NTA Agarose column. The column was washed with 20 mM Tris-HCl, pH 7.9, 0.5 M NaCl, 30 mM Imidazole wash buffer. […] Protein concentration was determined with a Nano Drop Spectrophotometer at […]. […]

In the case of `COc1ccnc(C[S+]([O-])c2nc3ccc(OC(F)F)cc3[nH]2)c1OC` (stereo not shown) [pantoprazole], the “Anti-HSV-2 activity (release from Vero cells), in words” value (“Anti-HSV-2 activity” for short) [1] was “inactive”.

For `COc1ccc2nc([S@@+]([O-])Cc3ncc(C)c(OC)c3C)[nH]c2c1` [esomeprazole], the “Inhibition of release of infectious HIV-1 from 293T cells” value [2] is given as “quantitatively inhibit the release” and the pEC50 ([1]; Human alphaherpesvirus 2, Vero cells, MOI 0.1, 24 h, read-out: EC50, inhibition of HSV-2 release) is given as 3.85.

In the case of `NC(CO)C(=O)NNCc1ccc(O)c(O)c1O` (stereo not shown) [benserazide (K21), benserazide], the “Effect on release of HSV-1 from VERO cells” value [3] was “did not appear to affect release of virus from cells”.

For `COc1ccc2nc([S+]([O-])Cc3c(C)c(OC)c(C)c[n+]3[O-])[nH]c2c1` (stereo not shown) [omeprazole-N-oxide], the “Tm (melting temperature) shift of Tsg101-UEV” value [4] was “did not cause a detectable thermal shift” and the “Anti-HSV-2 activity” value [1] was “inactive”.

With `COCCCOc1ccnc(C[S+]([O-])c2nc3ccccc3[nH]2)c1C` (stereo not shown) [rabeprazole] the “Anti-HSV-2 activity” value [1] was “inactive”.
